Test results as given in US9073853B2, “Cycloalkane carboxylic acid derivatives as CXCR3 receptor antagonists” (Sanofi, priority 2011, dated 2015).

These compounds were tested against human CXCR3-A receptor (Homo sapiens (Human), UniProt P49682) (assay: 125I-CXCL10 competition radioligand binding assay). Settings: displacement of 125I-CXCL10 from membranes of CHO cells expressing human recombinant CXCR3-A.
Procedure: IC50 values were determined for the test compounds and used to explore the structure-activity relationships (SAR). […] This cell line was registered in Sanofi-Aventis cell line bank. […] Cell suspension was diluted with PBS and cells were collected with centrifugation at 230 g for 10 minutes at 10° C. with a Juan centrifuge. […] The supernatant was carefully collected and centrifuged at 100,000×g for 60 min at 4° with a Beckman Avanti J30 centrifuge. […] Protein concentration was determined with Bio-Rad protein assay (Cat No 500-0006). Membrane aliquots were stored at -80° C. […] The composition of the binding assay buffer was determined in a course of detailed optimization procedure. […] Binding reaction was initiated by adding of membranes (10-20 μg proteins, approximately 5×10^5 cell equivalents) to the reaction mixture. After 60 minutes of incubation at 25° C. the reaction was terminated by rapid filtration over GF/B glass fiber filters that were pre-soaked with 0.5% polyethyleneimine (Fluka Analytical, P3143) for 1 hour, using a Skatron cell harvester device. Filters then were washed with 8 ml of ice-cold wash buffer (modified binding buffer in which BSA was omitted and the concentration of NaCl was adjusted to 500 mM concentration). The radioactivity retained on the filters was measured by a Wizard 1470 Automatic Gamma counter. Test compounds were dissolved prior to the binding assay at a concentration of 10 mM in DMSO. Stock solutions were stored at -20° C. for not longer than 3 months. […] Before adding these solutions of test compound to the binding reaction mixture, an intermediate dilution procedure was applied, in which 30 μL of each solution sample was transferred into a dilution tube containing 970 μL of binding assay buffer. […] The IC50 values and Hill slopes for competition binding data were obtained using nonlinear four-parametric curve fitting method.

human CXCR3-A receptor, sequence (P49682 whole entry): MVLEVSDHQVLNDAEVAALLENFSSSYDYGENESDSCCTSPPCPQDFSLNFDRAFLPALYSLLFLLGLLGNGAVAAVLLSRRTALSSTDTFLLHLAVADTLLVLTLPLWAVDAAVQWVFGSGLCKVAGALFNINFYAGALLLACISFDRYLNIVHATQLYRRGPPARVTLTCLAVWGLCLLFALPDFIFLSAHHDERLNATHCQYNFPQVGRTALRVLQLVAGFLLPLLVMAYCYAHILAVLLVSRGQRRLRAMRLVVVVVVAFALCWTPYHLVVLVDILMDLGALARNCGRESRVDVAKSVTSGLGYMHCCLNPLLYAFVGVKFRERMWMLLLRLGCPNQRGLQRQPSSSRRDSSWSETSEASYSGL

| IC50 | Compound |
| --- | --- |
| 58 nM | COc1cc(CN(C[C@H]2CC[C@H](C(=O)O)CC2)C2CCc3cc(Cl)ccc32)ccc1OCCN1C(=O)CSC1=O (stereo partly drawn) [Example 24, trans-4-[((5-Chloro-indan-1-yl)-{4-[2-(2,4-dioxo-thiazolidin-3-yl)-ethoxy]-3-methoxy-benzyl}-amino)-methyl]-cyclohexanecarboxylic acid] |
| 180 nM | COc1cc(CN(C[C@@H]2C[C@@H]2C(=O)O)C(C)c2ccc3c(c2)CCO3)ccc1OCCN1C(=O)CCC1=O (stereo partly drawn) [Example 114, (1S,2R)-2-[([1-(2,3-Dihydro-benzofuran-5-yl)-ethyl]-{4-[2-(2,5-dioxo-pyrrolidin-1-yl)-ethoxy]-3-methoxy-benzyl}-amino)-methyl]-cyclopropanecarboxylic acid] |
| 169 nM | Cc1cc(CN(C[C@H]2CC[C@H](C(=O)O)CC2)[C@@H](C)c2ccc(Cl)cc2)ccc1OCCn1c(=O)ccn(C)c1=O [Example 58, trans-4-[([(S)-1-(4-Chloro-phenyl)-ethyl]-{3-methyl-4-[2-(3-methyl-2,6-dioxo-3,6-dihydro-2H-pyrimidin-1-yl)-ethoxy]-benzyl}-amino)-methyl]-cyclohexanecarboxylic acid] |
| 104 nM | COc1cc(CN(C(C)c2ccc(Cl)c(Cl)c2)[C@H]2C[C@@H](C(=O)O)C2)ccc1OCCN1C(=O)CCC1=O (stereo partly drawn) [Example 137, cis-3-([1-(3,4-Dichloro-phenyl)-ethyl]-{4-[2-(2,5-dioxo-pyrrolidin-1-yl)-ethoxy]-3-methoxy-benzyl}-amino)-cyclobutanecarboxylic acid] |
| 633 nM | O=C1CCC(=O)N1CCOc1ccc(CN(C[C@H]2CC[C@H](C(=O)O)CC2)C2CCc3cc(Cl)ccc32)cc1Cl (stereo partly drawn) [Example 21, trans-4-{[{3-Chloro-4-[2-(2,5-dioxo-pyrrolidin-1-yl)-ethoxy]-benzyl}-(5-chloro-indan-1-yl)-amino]-methyl}-cyclohexanecarboxylic acid] |
| 55 nM | COc1cc(CN(C[C@H]2CC[C@H](C(=O)O)CC2)C(C)c2ccc3c(c2)CCO3)ccc1OCCN1C(=O)COC1=O (stereo partly drawn) [Example 19, trans-4-[([1-(2,3-Dihydro-benzofuran-5-yl)-ethyl]-{4-[2-(2,4-dioxo-oxazolidin-3-yl)-ethoxy]-3-methoxy-benzyl}-amino)-methyl]-cyclohexanecarboxylic acid] |
| 84 nM | COc1cc(CN(C[C@H]2CC[C@H](C(=O)O)CC2)C2CCc3c2ccc(F)c3Cl)ccc1OCCN1C(=O)CCC1=O (stereo partly drawn) [Example 93, trans-4-[((4-Chloro-5-fluoro-indan-1-yl)-{4-[2-(2,5-dioxo-pyrrolidin-1-yl)-ethoxy]-3-methoxy-benzyl}-amino)-methyl]-cyclohexanecarboxylic acid] |
| 270 nM | Cc1cc(CN(C[C@H]2CC[C@H](C(=O)O)CC2)C(C)c2ccc(Cl)c(Cl)c2)ccc1OCCN1C(=O)CCC1=O (stereo partly drawn) [Example 78, trans-4-[([1-(3,4-Dichloro-phenyl)-ethyl]-{4-[2-(2,5-dioxo-pyrrolidin-1-yl)-ethoxy]-3-methyl-benzyl}-amino)-methyl]-cyclohexanecarboxylic acid] |
| 82 nM | CCOC(=O)[C@H]1C[C@H]1CN(Cc1ccc(OCCN2C(=O)CCC2=O)c(OC)c1)C(C)c1ccc2c(c1)CCO2 (stereo partly drawn) [Example 113, (1S,2R)-2-[([1-(2,3-Dihydro-benzofuran-5-yl)-ethyl]-{4-[2-(2,5-dioxo-pyrrolidin-1-yl)-ethoxy]-3-methoxy-benzyl}-amino)-methyl]-cyclopropanecarboxylic acid ethyl ester] |
| 3810 nM | Cc1cc(CN(C[C@H]2CC[C@@H](C(=O)O)CC2)[C@@H](C)c2ccc(Cl)cc2)ccc1OCCN1C(=O)CCC1=O [Example 8, cis-4-[([(S)-1-(4-Chloro-phenyl)-ethyl]-{4-[2-(2,5-dioxo-pyrrolidin-1-yl)-ethoxy]-3-methyl-benzyl}-amino)-methyl]-cyclohexanecarboxylic acid] |
| 3000 nM | Cc1cc(CN([C@H]2C[C@@H](C(=O)O)C2)[C@H](C)c2ccc(Cl)cc2)ccc1CCCN1C(=O)CCC1=O [Example 143, cis-3-([(R)-1-(4-Chloro-phenyl)-ethyl]-{4-[3-(2,5-dioxo-pyrrolidin-1-yl)-propyl]-3-methyl-benzyl}-amino)-cyclobutanecarboxylic acid] |
| 410 nM | COc1cc(CN(C[C@H]2CC[C@H](C(=O)O)CC2)C2CCc3cc(Cl)ccc32)ccc1CCCN1C(=O)CCC1=O (stereo partly drawn) [Example 44, trans-4-[((5-Chloro-indan-1-yl)-{4-[3-(2,5-dioxo-pyrrolidin-1-yl)-propyl]-3-methoxy-benzyl}-amino)-methyl]-cyclohexanecarboxylic acid] |
| 157 nM | COc1cc(CN(C[C@H]2CC[C@H](C(=O)O)CC2)[C@@H](C)c2ccc(Cl)cc2)ccc1CCCN1C(=O)CN(C)C1=O [Example 51, trans-4-[([(S)-1-(4-Chloro-phenyl)-ethyl]-{3-methoxy-4-[3-(3-methyl-2,5-dioxo-imidazolidin-1-yl)-propyl]-benzyl}-amino)-methyl]-cyclohexanecarboxylic acid] |
| 457 nM | CCc1cc(CN([C@H]2C[C@@H](C(=O)O)C2)[C@H](C)c2ccc(Cl)c(F)c2)ccc1OCCN1C(=O)CCC1=O [Example 151, cis-3-([(R)-1-(4-Chloro-3-fluoro-phenyl)-ethyl]-{4-[2-(2,5-dioxo-pyrrolidin-1-yl)-ethoxy]-3-ethyl-benzyl}-amino)-cyclobutanecarboxylic acid] |
| 64 nM | COc1cc(CN(C[C@H]2CC[C@H](C(=O)O)CC2)[C@@H](C)c2ccc(Cl)c(C)c2)ccc1OCCN1C(=O)CCC1=O [Example 26, trans-4-[([(S)-1-(4-Chloro-3-methyl-phenyl)-ethyl]-{4-[2-(2,5-dioxo-pyrrolidin-1-yl)-ethoxy]-3-methoxy-benzyl}-amino)-methyl]-cyclohexanecarboxylic acid] |
| 146 nM | COc1cc(CN(C[C@H]2CC[C@H](C(=O)O)CC2)C(C)c2ccc3c(c2)CCC3)ccc1OCCN1C(=O)CN(C)C1=O (stereo partly drawn) [Example 145, trans-4-[((1-Indan-5-yl-ethyl)-{3-methoxy-4-[2-(3-methyl-2,5-dioxo-imidazolidin-1-yl)-ethoxy]-benzyl}-amino)-methyl]-cyclohexanecarboxylic acid] |
| 38 nM | Cc1cc(CN(C[C@H]2CC[C@H](C(=O)O)CC2)[C@@H](C)c2ccc(Cl)cc2)ccc1OCCN1C(=O)CCC1=O [Example 7, trans-4-[([(S)-1-(4-Chloro-phenyl)-ethyl]-{4-[2-(2,5-dioxo-pyrrolidin-1-yl)-ethoxy]-3-methyl-benzyl}-amino)-methyl]-cyclohexanecarboxylic acid] |
| 350 nM | COc1cc(CN(C[C@H]2CC[C@H](C(=O)O)CC2)[C@H]2CCc3cc(Cl)c(Cl)cc32)ccc1OCCN1C(=O)CCC1=O [Example 74, trans-4-[(((S)-5,6-Dichloro-indan-1-yl)-{4-[2-(2,5-dioxo-pyrrolidin-1-yl)-ethoxy]-3-methoxy-benzyl}-amino)-methyl]-cyclohexanecarboxylic acid] |
| 35 nM | CC(c1ccc2c(c1)CCO2)N(Cc1ccc(OCCN2C(=O)CCC2=O)c(Cl)c1)C[C@H]1CC[C@H](C(=O)O)CC1 (stereo partly drawn) [Example 16, trans-4-({{3-Chloro-4-[2-(2,5-dioxo-pyrrolidin-1-yl)-ethoxy]-benzyl}-[1-(2,3-dihydro-benzofuran-5-yl)-ethyl]-amino}-methyl)-cyclohexanecarboxylic acid] |
| 76 nM | COc1cc(CN(C[C@H]2CC[C@H](C(=O)O)CC2)[C@@H](C)c2ccc(Cl)cc2)ccc1OCCn1c(=O)ccn(C)c1=O [Example 37, trans-4-[([(S)-1-(4-Chloro-phenyl)-ethyl]-{3-methoxy-4-[2-(3-methyl-2,6-dioxo-3,6-dihydro-2H-pyrimidin-1-yl)-ethoxy]-benzyl}-amino)-methyl]-cyclohexanecarboxylic acid] |
| 13 nM | COc1cc(CN(C[C@H]2CC[C@H](C(=O)O)CC2)[C@H]2CCc3cc(Cl)ccc32)ccc1OCCN1C(=O)CCC1=O [Example 12, trans-4-[(((S)-5-Chloro-indan-1-yl)-{4-[2-(2,5-dioxo-pyrrolidin-1-yl)-ethoxy]-3-methoxy-benzyl}-amino)-methyl]-cyclohexanecarboxylic acid] |
| 6500 nM | Cc1cc([C@H](C)N(Cc2ccc(OCCN3C(=O)CCC3=O)c(C)c2)[C@H]2C[C@@H](C(=O)O)C2)ccc1Cl [Example 131, cis-3-([(S)-1-(4-Chloro-3-methyl-phenyl)-ethyl]-{4-[2-(2,5-dioxo-pyrrolidin-1-yl)-ethoxy]-3-methyl-benzyl}-amino)-cyclobutanecarboxylic acid] |

Same assay, conditions: read-out: % at 10 μM; at 10 μM; displacement of 125I-CXCL10

| inhibition at 10 µM | Compound |
| --- | --- |
| 37% | Cc1cc([C@@H](C)N(Cc2ccc(OCCN3C(=O)CCC3=O)c(C)c2)[C@H]2C[C@H](C(=O)O)C2)ccc1Cl [Example 128, trans-3-([(R)-1-(4-Chloro-3-methyl-phenyl)-ethyl]-{4-[2-(2,5-dioxo-pyrrolidin-1-yl)-ethoxy]-3-methyl-benzyl}-amino)-cyclobutanecarboxylic acid] |
